Reference: PubChem BioAssay (NCI)
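Method: 48-hour compound exposure of cells in 96-well plates, five concentrations, linear interpolation of endpoints. GI50: concentration for 50% inhibition of growth. Definition used: TGI = concentration required for complete inhibition of growth.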

Experiments:
Experiment in all cases: NCI-60 cell line screen, 48 h
ACHN renal = system: ACHN renal
LOX IMVI melanoma = system: LOX IMVI melanoma
UACC-257 melanoma = system: UACC-257 melanoma
786-0 renal = system: 786-0 renal
HOP-92 NSCLC = system: HOP-92 NSCLC
M14 melanoma = system: M14 melanoma
DU-145 prostate = system: DU-145 prostate
CCRF-CEM leukemia = system: CCRF-CEM leukemia
SK-MEL-28 melanoma = system: SK-MEL-28 melanoma
HT29 colon = system: HT29 colon
SF-295 CNS = system: SF-295 CNS
K-562 leukemia = system: K-562 leukemia
HOP-62 NSCLC = system: HOP-62 NSCLC
SK-OV-3 ovarian = system: SK-OV-3 ovarian
SNB-75 CNS = system: SNB-75 CNS
MOLT-4 leukemia = system: MOLT-4 leukemia
OVCAR-8 ovarian = system: OVCAR-8 ovarian
A498 renal = system: A498 renal
EKVX NSCLC = system: EKVX NSCLC
HS 578T breast = system: HS 578T breast
HCC-2998 colon = system: HCC-2998 colon
COLO 205 colon = system: COLO 205 colon
UACC-62 melanoma = system: UACC-62 melanoma
SN12C renal = system: SN12C renal
MCF7 breast = system: MCF7 breast
PC-3 prostate = system: PC-3 prostate
CAKI-1 renal = system: CAKI-1 renal
SK-MEL-2 melanoma = system: SK-MEL-2 melanoma
OVCAR-5 ovarian = system: OVCAR-5 ovarian
HCT-116 colon = system: HCT-116 colon
KM12 colon = system: KM12 colon
SK-MEL-5 melanoma = system: SK-MEL-5 melanoma
HCT-15 colon = system: HCT-15 colon
NCI-H226 lung = system: NCI-H226 lung
TK-10 renal = system: TK-10 renal
RPMI-8226 leukemia = system: RPMI-8226 leukemia
SF-539 CNS = system: SF-539 CNS
MALME-3M melanoma = system: MALME-3M melanoma
UO-31 renal = system: UO-31 renal
SW-620 colon = system: SW-620 colon
HL-60(TB) leukemia = system: HL-60(TB) leukemia
OVCAR-4 ovarian = system: OVCAR-4 ovarian
NCI-H522 lung = system: NCI-H522 lung
RXF 393 renal = system: RXF 393 renal
NCI/ADR-RES ovarian = system: NCI/ADR-RES ovarian
NCI-H460 lung = system: NCI-H460 lung
A549 NSCLC = system: A549 NSCLC
U251 CNS = system: U251 CNS
BT-549 breast = system: BT-549 breast
IGROV1 ovarian = system: IGROV1 ovarian
SNB-19 CNS = system: SNB-19 CNS
MDA-MB-435 = system: MDA-MB-435
SF-268 CNS = system: SF-268 CNS

Cc1cccc(N2CCN(C3=C(Cl)C(=O)c4ncccc4C3=O)CC2)c1
GI50 (ACHN renal): 1.72 µM
TGI (ACHN renal): 3.51 µM
GI50 (LOX IMVI melanoma): 1.57 µM
TGI (LOX IMVI melanoma): 3.02 µM
GI50 (UACC-257 melanoma): 2.05 µM
TGI (UACC-257 melanoma): 4.97 µM
GI50 (786-0 renal): 2.33 µM
TGI (786-0 renal): 5.36 µM
GI50 (HOP-92 NSCLC): 1.48 µM
TGI (HOP-92 NSCLC): 2.86 µM
GI50 (M14 melanoma): 2.69 µM
TGI (M14 melanoma): 9.36 µM
GI50 (DU-145 prostate): 6.86 µM
TGI (DU-145 prostate): 26.3 µM
GI50 (CCRF-CEM leukemia): 2.03 µM
TGI (CCRF-CEM leukemia): 5.79 µM
GI50 (SK-MEL-28 melanoma): 2.6 µM
TGI (SK-MEL-28 melanoma): 6.61 µM
GI50 (HT29 colon): 6.09 µM
TGI (HT29 colon): 21 µM
GI50 (SF-295 CNS): 12.1 µM
TGI (SF-295 CNS): 25.5 µM
GI50 (K-562 leukemia): 1.8 µM
TGI (K-562 leukemia): 5.31 µM
GI50 (HOP-62 NSCLC): 17 µM
TGI (HOP-62 NSCLC): 31 µM
GI50 (SK-OV-3 ovarian): 12.8 µM
TGI (SK-OV-3 ovarian): 42.9 µM
GI50 (SNB-75 CNS): 10.9 µM
TGI (SNB-75 CNS): 27.9 µM
GI50 (MOLT-4 leukemia): 2.01 µM
TGI (MOLT-4 leukemia): 5.45 µM
GI50 (OVCAR-8 ovarian): 2.66 µM
TGI (OVCAR-8 ovarian): 9.3 µM
GI50 (A498 renal): 13.1 µM
TGI (A498 renal): 26.5 µM
GI50 (EKVX NSCLC): 1.78 µM
TGI (EKVX NSCLC): 3.34 µM
GI50 (HS 578T breast): 5.74 µM
TGI (HS 578T breast): 38.5 µM
GI50 (HCC-2998 colon): 8.53 µM
TGI (HCC-2998 colon): 22.1 µM
GI50 (COLO 205 colon): 1.94 µM
TGI (COLO 205 colon): 3.79 µM
GI50 (UACC-62 melanoma): 3.49 µM
TGI (UACC-62 melanoma): 13 µM
GI50 (SN12C renal): 4.28 µM
TGI (SN12C renal): 21.9 µM
GI50 (MCF7 breast): 1.63 µM
TGI (MCF7 breast): 3.75 µM
GI50 (PC-3 prostate): 4.48 µM
TGI (PC-3 prostate): 17.5 µM
GI50 (CAKI-1 renal): 2.86 µM
TGI (CAKI-1 renal): 11.6 µM
GI50 (SK-MEL-2 melanoma): 6.33 µM
TGI (SK-MEL-2 melanoma): 19.2 µM
GI50 (OVCAR-5 ovarian): 15 µM
TGI (OVCAR-5 ovarian): 31.5 µM
GI50 (HCT-116 colon): 1.67 µM
TGI (HCT-116 colon): 3.07 µM
GI50 (KM12 colon): 19 µM
TGI (KM12 colon): 36.4 µM
GI50 (SK-MEL-5 melanoma): 9.63 µM
TGI (SK-MEL-5 melanoma): 21.5 µM
GI50 (HCT-15 colon): 1.71 µM
TGI (HCT-15 colon): 4.05 µM
GI50 (NCI-H226 lung): 12.9 µM
TGI (NCI-H226 lung): 33.3 µM
GI50 (TK-10 renal): 3.96 µM
TGI (TK-10 renal): 8.89 µM
GI50 (RPMI-8226 leukemia): 2.08 µM
TGI (RPMI-8226 leukemia): 5.47 µM
GI50 (SF-539 CNS): 3.91 µM
TGI (SF-539 CNS): 15.6 µM
GI50 (MALME-3M melanoma): 1.83 µM
TGI (MALME-3M melanoma): 3.77 µM
GI50 (UO-31 renal): 1.48 µM
TGI (UO-31 renal): 2.81 µM
GI50 (SW-620 colon): 1.42 µM
TGI (SW-620 colon): 3 µM
GI50 (HL-60(TB) leukemia): 1.27 µM
TGI (HL-60(TB) leukemia): 3.82 µM
GI50 (OVCAR-4 ovarian): 1.74 µM
TGI (OVCAR-4 ovarian): 3.26 µM
GI50 (NCI-H522 lung): 1.74 µM
TGI (NCI-H522 lung): 3.42 µM
GI50 (RXF 393 renal): 1.72 µM
TGI (RXF 393 renal): 3.15 µM
GI50 (NCI/ADR-RES ovarian): 2.44 µM
TGI (NCI/ADR-RES ovarian): 7.45 µM
GI50 (NCI-H460 lung): 5.49 µM
TGI (NCI-H460 lung): 21.3 µM
GI50 (A549 NSCLC): 15.7 µM
TGI (A549 NSCLC): 36 µM
GI50 (U251 CNS): 6.96 µM
TGI (U251 CNS): 21.1 µM
GI50 (BT-549 breast): 3.61 µM
TGI (BT-549 breast): 9.58 µM
GI50 (IGROV1 ovarian): 2.53 µM
TGI (IGROV1 ovarian): 6.58 µM
GI50 (SNB-19 CNS): 14.4 µM
TGI (SNB-19 CNS): 29.5 µM
GI50 (MDA-MB-435): 1.81 µM
TGI (MDA-MB-435): 3.35 µM
GI50 (SF-268 CNS): 14.4 µM
TGI (SF-268 CNS): 32.2 µM
